# Source: ChEMBL document CHEMBL6109113, “Design, synthesis, and biological evaluation of novel PROTACs compounds with good ERα degradation ability” (Bioorg Med Chem, 2025)
# Active and inactive are the calls of the source. No cut-off for these calls is given here.
# Columns and labels:
# MCF7 [1] = test: Protac activity at VHL/ER in human MCF7 cells assessed as induction of ER degradation at 1 uM measured after 24 hrs by Western blot analysis; type: cell-based
# MCF7 [2] = test: Antiproliferative activity against human MCF7 cells assessed as reduction in cell viability measured after 7 days by celltiter-glo luminescence assay; type: functional, cell-based; conditions: for IC50: MCF7, 168 h; for Activity: time 7.0 day
# [3] = target: T1, Protein cereblon/Estrogen receptor (Homo sapiens, UniProt P03372+Q96SW2); test: Protac activity at CRBN/ER in human MCF7 cells assessed as induction of ER degradation at 1 uM measured after 24 hrs by Western blot analysis; type: cell-based
# Target sequence in this assay (P03372 whole entry, looked up): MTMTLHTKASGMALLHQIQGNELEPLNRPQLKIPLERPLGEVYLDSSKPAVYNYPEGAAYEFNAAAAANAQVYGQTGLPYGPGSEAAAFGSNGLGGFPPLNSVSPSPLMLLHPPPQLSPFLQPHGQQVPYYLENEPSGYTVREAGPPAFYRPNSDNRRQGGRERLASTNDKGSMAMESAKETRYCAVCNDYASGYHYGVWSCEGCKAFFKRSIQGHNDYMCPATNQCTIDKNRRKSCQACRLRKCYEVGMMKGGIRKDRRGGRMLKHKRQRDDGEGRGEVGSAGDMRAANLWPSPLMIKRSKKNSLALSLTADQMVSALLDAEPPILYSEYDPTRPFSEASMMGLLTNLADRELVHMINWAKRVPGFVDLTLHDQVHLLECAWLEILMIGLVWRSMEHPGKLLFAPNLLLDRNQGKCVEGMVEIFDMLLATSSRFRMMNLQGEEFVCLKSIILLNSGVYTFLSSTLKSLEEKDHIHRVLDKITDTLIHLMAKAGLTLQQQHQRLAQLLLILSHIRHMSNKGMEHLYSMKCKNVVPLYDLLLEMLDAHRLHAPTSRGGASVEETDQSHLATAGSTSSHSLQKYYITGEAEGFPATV
# Target sequence in this assay (Q96SW2 whole entry, looked up): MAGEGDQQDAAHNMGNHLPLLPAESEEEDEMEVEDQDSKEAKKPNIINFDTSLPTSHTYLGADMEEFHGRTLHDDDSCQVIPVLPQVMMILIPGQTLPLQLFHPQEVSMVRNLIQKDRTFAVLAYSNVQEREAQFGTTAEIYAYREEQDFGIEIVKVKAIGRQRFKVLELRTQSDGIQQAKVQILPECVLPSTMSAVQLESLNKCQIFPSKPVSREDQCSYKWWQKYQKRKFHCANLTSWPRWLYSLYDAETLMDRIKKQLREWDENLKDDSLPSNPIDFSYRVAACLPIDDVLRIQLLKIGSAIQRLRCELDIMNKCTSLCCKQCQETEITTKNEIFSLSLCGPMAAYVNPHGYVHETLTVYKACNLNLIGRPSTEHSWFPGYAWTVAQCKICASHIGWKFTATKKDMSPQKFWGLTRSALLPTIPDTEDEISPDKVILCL
# [4] = target: T1, Protein cereblon/Estrogen receptor; test: Protac activity at CRBN/ER in human MCF7 cells assessed as induction of ER degradation measured after 24 hrs by Western blot analysis; type: cell-based
# [5] = target: T1, Protein cereblon/Estrogen receptor; test: Protac activity at CRBN/ER in human MCF7 cells assessed as induction of ER degradation at 10 uM measured after 24 hrs by Western blot analysis; type: cell-based
# Target sequence in this assay (P03372 whole entry, looked up): as the sequence (P03372 whole entry, looked up) above
# Target sequence in this assay (Q96SW2 whole entry, looked up): as the sequence (Q96SW2 whole entry, looked up) above
# [6] = Cmax in CD-1 mouse at 2 mg/kg, ip by LC-MS/MS analysis; type: ADME, organism-based; conditions: in vivo
# [7] = Tmax in CD-1 mouse at 2 mg/kg, ip by LC-MS/MS analysis; type: ADME, organism-based; conditions: in vivo
# [8] = Half life in CD-1 mouse at 2 mg/kg, ip by LC-MS/MS analysis; type: ADME, organism-based; conditions: in vivo
# [9] = Observed apparent […] clearance in CD-1 mouse at 2 mg/kg, ip by LC-MS/MS analysis; type: ADME, organism-based; conditions: in vivo
# [10] = Toxicity in CD-1 mouse assessed as adverse effect at 2 mg/kg, ip; type: organism-based; conditions: in vivo
smiles,measurement,setting,value
COC(=O)c1ccc2c(c1)CCCC(c1ccc(Cl)cc1Cl)=C2c1ccc(N2CCC(CN[C@H](C(=O)N3C[C@H](O)C[C@H]3C(=O)N[C@@H](C)c3ccc(-c4scnc4C)cc3)C(C)(C)C)CC2)cc1,Activity,MCF7 [1],Not active; Degradation Ability Was Poorer When Compared With Compounds Whose E3 Ligase Ligand Was Crbn
COC(=O)c1ccc2c(c1)CCCC(c1ccc(Cl)cc1Cl)=C2c1ccc(OC2CCN(CCCN[C@H](C(=O)N3C[C@H](O)C[C@H]3C(=O)N[C@@H](C)c3ccc(-c4scnc4C)cc3)C(C)(C)C)C2)cc1 (some centres undefined),Activity,MCF7 [1],Not active; Degradation Ability Was Poorer When Compared With Compounds Whose E3 Ligase Ligand Was Crbn
COC(=O)c1ccc2c(c1)CCCC(c1ccc(Cl)cc1Cl)=C2c1ccc(OC2CCN(CCCNC(=O)C3CCN(C4CCN(C(=O)CNc5cccc6c5CN(C5CCC(=O)NC5=O)C6=O)CC4)CC3)C2)cc1 (centres undefined),IC50,MCF7 [2],772 nM
same,Activity,MCF7 [2],Dose-dependent-effect
COC(=O)c1ccc2c(c1)CCCC(c1ccc(Cl)cc1Cl)=C2c1ccc(N2CCN(CC3CCN(CC4CCN(C(=O)CNc5ccc6c(c5)C(=O)N(C5CCC(=O)NC5=O)C6)CC4)CC3)CC2)cc1 (centres undefined),Activity,[3],Active
same,Activity,[4],Dose-dependent-effect
same,DC50,[4],95 nM
same,Activity,[5],inactive
same,IC50,MCF7 [2],30.2 nM
same,Activity,MCF7 [2],Dose-dependent-effect
same,Cmax,[6],677 ng/mL
same,Tmax,[7],0.83 h
same,half-life,[8],11.2 h
same,CL/F,[9],25.8 mL/min/kg
same,Activity,[10],Non-toxic
Cc1ncsc1-c1ccc([C@H](C)NC(=O)[C@@H]2C[C@@H](O)CN2C(=O)[C@@H](NCC2CCN(c3ccc(C4=C(c5ccc(Cl)cc5Cl)CCCc5cc(C(=O)O)ccc54)cc3)CC2)C(C)(C)C)cc1,Activity,MCF7 [1],Not active; Degradation Ability Was Poorer When Compared With Compounds Whose E3 Ligase Ligand Was Crbn
COC(=O)c1ccc2c(c1)CCCC(c1ccc(Cl)cc1Cl)=C2c1ccc(N2CCC(CNCCOCCCOCCCOCCNC(=O)COc3ccc4c(c3)C(=O)N(C3CCC(=O)NC3=O)C4=O)CC2)cc1 (centres undefined),Activity,[3],Active
C[C@]12CC[C@@H]3c4ccc(O)cc4C[C@@H](CCCCCCCCC[S+]([O-])CCCC(F)(F)C(F)(F)F)[C@H]3[C@@H]1CC[C@@H]2O (some centres undefined) [FULVESTRANT],IC50,MCF7 [2],< 0.5 nM
same,Cmax,[6],237 ng/mL
same,Tmax,[7],0.83 h
same,half-life,[8],1.47 h
same,CL/F,[9],45.8 mL/min/kg
COC(=O)c1ccc2c(c1)CCCC(c1ccc(Cl)cc1Cl)=C2c1ccc(OC2CCN(CCCNC(=O)CN3CCN(C(=O)CNc4cccc5c4CN(C4CCC(=O)NC4=O)C5=O)CC3)C2)cc1 (centres undefined),IC50,MCF7 [2],80.2 nM
same,Activity,MCF7 [2],Dose-dependent-effect
